Test results as given in ChEMBL document CHEMBL5665443, “Enzyme Inhibitor Single Concentration assay results for EUbOPEN Chemogenomics Library” (2024).

What was measured:
[1] = target: T1, Single-strand selective monofunctional uracil DNA glycosylase (Homo sapiens) (UniProt Q53HV7); settings: Hit No;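 further: enzymatic SMUG1 assay coupled with APE1, reading fluorescence at 594 nm released when a quenched double-stranded DNA oligonucleotide substrate is cleaved and separated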
T1 sequence (whole entry): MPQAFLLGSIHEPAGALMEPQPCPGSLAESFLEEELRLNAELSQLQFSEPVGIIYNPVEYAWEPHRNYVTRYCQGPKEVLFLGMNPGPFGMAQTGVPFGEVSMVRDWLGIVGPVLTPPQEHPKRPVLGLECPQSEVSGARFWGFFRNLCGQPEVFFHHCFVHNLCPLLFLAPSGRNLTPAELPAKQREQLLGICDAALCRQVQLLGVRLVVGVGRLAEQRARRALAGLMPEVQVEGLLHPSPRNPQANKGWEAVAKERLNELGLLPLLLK
Description: Inhibition of SMUG1 by quantifying inhibition of SMUG1-mediated cleavage and dissociation of quenched duplex DNA oligonucleotides, measured as fluorescence at 594 nm. To generate a functional strand incision and increase turn-over this assay is coupled to APE1.

[2] = target: T2, Endonuclease III-like protein 1 (Homo sapiens) (UniProt P78549); settings: Hit No;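 further: enzyme assay tracking NTHL1 cutting and release of a quenched double-stranded DNA oligo substrate, read as fluorescence at 594 nm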
T2 sequence (whole entry): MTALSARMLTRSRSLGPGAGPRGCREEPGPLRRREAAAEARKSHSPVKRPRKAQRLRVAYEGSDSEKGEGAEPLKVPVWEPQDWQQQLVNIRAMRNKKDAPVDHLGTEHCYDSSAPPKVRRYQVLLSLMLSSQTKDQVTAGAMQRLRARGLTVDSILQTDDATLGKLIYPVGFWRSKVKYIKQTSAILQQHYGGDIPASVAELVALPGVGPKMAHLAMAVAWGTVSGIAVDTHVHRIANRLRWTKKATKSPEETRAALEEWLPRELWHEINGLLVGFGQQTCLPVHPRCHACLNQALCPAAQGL
Description: Inhibition of NTHL1 by quantifying inhibition of NTHL1-mediated cleavage and dissociation of quenched duplex DNA oligonucleotides, measured as fluorescence at 594 nm.

[3] = target: T3, Adenine DNA glycosylase (Homo sapiens) (UniProt Q9UIF7); settings: Hit No;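 further: human MUTYH activity read as 594 nm fluorescence from cleavage and release of a quenched DNA duplex, coupled with APE1 for strand incision, lower signal meaning inhibition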
T3 sequence (whole entry): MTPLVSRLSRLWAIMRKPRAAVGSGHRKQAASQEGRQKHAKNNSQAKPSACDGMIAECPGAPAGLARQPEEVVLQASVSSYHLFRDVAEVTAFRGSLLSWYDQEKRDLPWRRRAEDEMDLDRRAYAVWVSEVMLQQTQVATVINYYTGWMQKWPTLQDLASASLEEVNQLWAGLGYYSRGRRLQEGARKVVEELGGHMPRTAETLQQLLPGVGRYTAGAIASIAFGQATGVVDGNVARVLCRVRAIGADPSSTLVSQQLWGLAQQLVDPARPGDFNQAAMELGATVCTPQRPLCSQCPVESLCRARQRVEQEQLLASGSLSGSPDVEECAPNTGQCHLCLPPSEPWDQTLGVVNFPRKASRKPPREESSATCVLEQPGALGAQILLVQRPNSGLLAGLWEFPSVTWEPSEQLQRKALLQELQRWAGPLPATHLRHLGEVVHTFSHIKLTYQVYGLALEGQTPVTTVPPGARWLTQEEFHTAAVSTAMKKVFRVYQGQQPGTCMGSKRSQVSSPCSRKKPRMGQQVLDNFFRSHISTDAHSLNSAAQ
Description: Inhibition of MUTYH by quantifying inhibition of MUTYH-mediated cleavage and dissociation of quenched duplex DNA oligonucleotides, measured as fluorescence at 594 nm. To generate a functional strand incision and increase turn-over this assay is coupled to APE1.

[4] = target: T4, Endonuclease 8-like 2 (Homo sapiens) (UniProt Q969S2); settings: Hit No;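 further: fluorescence at 594 nm reports NEIL2 cutting and release of a quenched double-stranded DNA oligo substrate, reduced signal read as inhibition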
T4 sequence (whole entry): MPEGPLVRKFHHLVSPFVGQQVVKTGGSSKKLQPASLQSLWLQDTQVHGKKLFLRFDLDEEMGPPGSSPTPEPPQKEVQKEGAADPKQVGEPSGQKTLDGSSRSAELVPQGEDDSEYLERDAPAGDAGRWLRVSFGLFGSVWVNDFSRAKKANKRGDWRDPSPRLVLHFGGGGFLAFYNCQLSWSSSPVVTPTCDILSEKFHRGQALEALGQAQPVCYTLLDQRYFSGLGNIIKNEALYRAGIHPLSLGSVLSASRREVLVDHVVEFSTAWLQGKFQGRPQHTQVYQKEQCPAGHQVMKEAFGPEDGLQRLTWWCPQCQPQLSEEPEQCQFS
Description: Inhibition of NEIL2 by quantifying inhibition of NEIL2-mediated cleavage and dissociation of quenched duplex DNA oligonucleotides, measured as fluorescence at 594 nm.

[5] = target: G/T mismatch-specific thymine DNA glycosylase (Homo sapiens) (UniProt Q13569); settings: Hit No;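 further: human TDG cleavage of quenched duplex DNA oligonucleotides coupled to APE1, strand release read as fluorescence at 594 nm, inhibition of TDG activity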
Sequence of G/T mismatch-specific thymine DNA glycosylase (Homo sapiens) (Q13569 whole entry): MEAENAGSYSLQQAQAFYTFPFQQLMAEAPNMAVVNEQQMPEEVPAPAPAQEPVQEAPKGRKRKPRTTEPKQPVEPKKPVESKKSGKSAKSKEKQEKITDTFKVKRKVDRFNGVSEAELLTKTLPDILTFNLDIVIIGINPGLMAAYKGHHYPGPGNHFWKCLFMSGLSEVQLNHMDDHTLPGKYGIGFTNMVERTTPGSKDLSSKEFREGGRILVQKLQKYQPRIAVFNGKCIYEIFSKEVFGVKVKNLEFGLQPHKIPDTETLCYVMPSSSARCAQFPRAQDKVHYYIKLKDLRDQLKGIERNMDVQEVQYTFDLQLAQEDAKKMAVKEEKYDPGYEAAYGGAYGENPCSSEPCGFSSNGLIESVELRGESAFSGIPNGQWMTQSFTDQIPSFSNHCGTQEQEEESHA
Description: Inhibition of TDG by quantifying inhibition of TDG-mediated cleavage and dissociation of quenched duplex DNA oligonucleotides, measured as fluorescence at 594 nm. To generate a functional strand incision and increase turn-over this assay is coupled to APE1.

[6] = target: Endonuclease 8-like 1 (Homo sapiens) (UniProt Q96FI4); settings: Hit No;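 further: fluorescence at 594 nm from quenched duplex DNA oligonucleotides released by NEIL1 cleavage and strand separation, reported as reduction of this enzyme activity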
Sequence of Endonuclease 8-like 1 (Homo sapiens) (Q96FI4 whole entry): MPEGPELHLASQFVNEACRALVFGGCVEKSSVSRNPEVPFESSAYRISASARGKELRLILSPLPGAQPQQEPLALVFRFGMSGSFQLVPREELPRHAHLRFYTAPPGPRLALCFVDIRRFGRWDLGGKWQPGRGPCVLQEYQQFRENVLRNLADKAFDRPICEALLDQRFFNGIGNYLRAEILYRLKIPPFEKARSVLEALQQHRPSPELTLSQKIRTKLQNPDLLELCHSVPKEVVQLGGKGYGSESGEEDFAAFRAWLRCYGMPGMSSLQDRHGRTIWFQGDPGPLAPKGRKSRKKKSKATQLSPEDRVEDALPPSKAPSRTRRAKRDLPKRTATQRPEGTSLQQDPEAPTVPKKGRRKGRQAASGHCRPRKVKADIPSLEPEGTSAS
Description: Inhibition of NEIL1 by quantifying inhibition of NEIL1-mediated cleavage and dissociation of quenched duplex DNA oligonucleotides, measured as fluorescence at 594 nm.

[7] = target: N-glycosylase/DNA lyase (Homo sapiens) (UniProt O15527);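 further: OGG1 cleavage of a quenched duplex DNA oligonucleotide, coupled to APE1 for strand incision, read as fluorescence at 594 nm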
Sequence of N-glycosylase/DNA lyase (Homo sapiens) (O15527 whole entry): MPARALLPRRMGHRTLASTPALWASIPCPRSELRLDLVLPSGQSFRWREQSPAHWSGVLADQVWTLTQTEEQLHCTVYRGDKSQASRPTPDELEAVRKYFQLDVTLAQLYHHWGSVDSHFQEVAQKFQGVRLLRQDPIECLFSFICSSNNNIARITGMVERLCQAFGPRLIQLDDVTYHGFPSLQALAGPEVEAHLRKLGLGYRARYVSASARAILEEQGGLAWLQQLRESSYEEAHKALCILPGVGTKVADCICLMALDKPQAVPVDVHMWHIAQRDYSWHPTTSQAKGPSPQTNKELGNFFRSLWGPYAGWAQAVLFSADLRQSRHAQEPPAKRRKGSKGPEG
Description: Inhibition of OGG1 by quantifying inhibition of OGG1-mediated cleavage and dissociation of quenched duplex DNA oligonucleotides, measured as fluorescence at 594 nm. To generate a functional strand incision and increase turn-over this assay is coupled to APE1.

[8] = target: Uracil-DNA glycosylase (Homo sapiens) (UniProt P13051); settings: Hit No;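 further: UNG excision on a quenched double-stranded DNA oligo probe, with APE1 added for strand incision and turnover, read as fluorescence at 594 nm as strands separate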
Sequence of Uracil-DNA glycosylase (Homo sapiens) (P13051 whole entry, the tested form may be a part): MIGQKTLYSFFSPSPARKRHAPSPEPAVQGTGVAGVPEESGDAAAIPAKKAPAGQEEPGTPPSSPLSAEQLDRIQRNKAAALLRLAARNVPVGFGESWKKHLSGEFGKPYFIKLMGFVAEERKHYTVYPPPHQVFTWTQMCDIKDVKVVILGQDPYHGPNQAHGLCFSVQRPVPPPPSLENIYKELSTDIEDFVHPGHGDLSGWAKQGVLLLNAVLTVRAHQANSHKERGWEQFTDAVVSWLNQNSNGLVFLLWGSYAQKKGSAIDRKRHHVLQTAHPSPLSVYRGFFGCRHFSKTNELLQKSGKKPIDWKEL
Description: Inhibition of UNG by quantifying inhibition of UNG-mediated cleavage and dissociation of quenched duplex DNA oligonucleotides, measured as fluorescence at 594 nm. To generate a functional strand incision and increase turn-over this assay is coupled to APE1.

[9] = target: Methyl-CpG-binding domain protein 4 (Homo sapiens) (UniProt O95243); settings: Hit No;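 further: MBD4 activity read as fluorescence at 594 nm from cleavage and release of a quenched duplex DNA oligonucleotide, with APE1 coupled to incise the strand and raise turnover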
Sequence of Methyl-CpG-binding domain protein 4 (Homo sapiens) (O95243 whole entry, the tested form may be a part): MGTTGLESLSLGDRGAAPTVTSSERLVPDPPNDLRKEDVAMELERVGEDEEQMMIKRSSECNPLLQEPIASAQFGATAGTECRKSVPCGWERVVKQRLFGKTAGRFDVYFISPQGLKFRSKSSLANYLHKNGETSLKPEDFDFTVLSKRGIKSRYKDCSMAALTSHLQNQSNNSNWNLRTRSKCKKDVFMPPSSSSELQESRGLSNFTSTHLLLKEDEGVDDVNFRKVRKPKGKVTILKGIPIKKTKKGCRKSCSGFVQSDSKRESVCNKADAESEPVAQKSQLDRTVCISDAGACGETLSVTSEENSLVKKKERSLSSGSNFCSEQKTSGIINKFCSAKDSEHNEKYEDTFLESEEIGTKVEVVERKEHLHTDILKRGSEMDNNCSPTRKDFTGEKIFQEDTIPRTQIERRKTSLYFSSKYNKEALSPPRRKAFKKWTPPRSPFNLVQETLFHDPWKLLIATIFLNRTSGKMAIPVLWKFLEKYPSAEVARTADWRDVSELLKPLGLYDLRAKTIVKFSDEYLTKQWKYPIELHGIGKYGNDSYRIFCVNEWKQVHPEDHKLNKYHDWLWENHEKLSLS
Description: Inhibition of MBD4 by quantifying inhibition of MBD4-mediated cleavage and dissociation of quenched duplex DNA oligonucleotides, measured as fluorescence at 594 nm. To generate a functional strand incision and increase turn-over this assay is coupled to APE1.

[10] = Compound Concentration 10.0 uM, Hit No
[11] = Compound Concentration 1.0 uM, Hit No

| SMILES | inhibition ([1]; Compound Concentration 10.0 uM) | inhibition ([2]; Compound Concentration 10.0 uM) | inhibition ([3]; Compound Concentration 10.0 uM) | inhibition ([4]; Compound Concentration 10.0 uM) | inhibition ([5]; Compound Concentration 10.0 uM) | inhibition ([6]; Compound Concentration 10.0 uM) | inhibition [7, 10] | inhibition ([8]; Compound Concentration 10.0 uM) | inhibition ([9]; Compound Concentration 10.0 uM) | inhibition ([7]; Compound Concentration 10.0 uM, Hit Yes) | inhibition ([1]; Compound Concentration 1.0 uM) | inhibition ([2]; Compound Concentration 1.0 uM) | inhibition ([3]; Compound Concentration 1.0 uM) | inhibition ([4]; Compound Concentration 1.0 uM) | inhibition ([5]; Compound Concentration 1.0 uM) | inhibition ([6]; Compound Concentration 1.0 uM) | inhibition [7, 11] | inhibition ([8]; Compound Concentration 1.0 uM) | inhibition ([9]; Compound Concentration 1.0 uM) |
| --- | --- | --- | --- | --- | --- | --- | --- | --- | --- | --- | --- | --- | --- | --- | --- | --- | --- | --- | --- |
| Cc1cc([C@@H](C)Nc2ccccc2C(=O)O)c2nc(N3CCOCC3)cc(=O)n2c1 | 20.9% | -1.31% | 10.5% | 2.93% | 50.8% | 0.798% | 12% | 3.71% | -6.46% | – | – | – | – | – | – | – | – | – | – |
| Fc1ccc(-c2c3cccc(C(F)(F)F)c3nn2Cc2ccc(F)cc2Cl)cc1 | 12.2% | -1.29% | 1.43% | -0.489% | 53.1% | -7.41% | 8% | 4.08% | 53.9% | – | – | – | – | – | – | – | – | – | – |
| Cc1oc2ccccc2c1Cc1cc(I)c(OCC(=O)O)c(I)c1 | 47.4% | 17.8% | 29.3% | 3.34% | 98.9% | 0.619% | – | 6.35% | 67.1% | 91.8% | – | – | – | – | – | – | – | – | – |
| CC(=O)Nc1nc(CN2CCC[C@H](Cc3cc(C)nc(C)c3)C2)cs1 | 19% | 9.23% | 17.8% | 3.85% | 45.8% | 1.68% | 13.6% | 7.98% | 81.4% | – | – | – | – | – | – | – | – | – | – |
| COc1ccccc1-c1cc(Nc2cccc(CS(N)(=O)=O)c2)ncn1 | 19.3% | 7.06% | 4.56% | 4% | 35.8% | -4.75% | 3.23% | 3.59% | -4.72% | – | – | – | – | – | – | – | – | – | – |
| CCC(=O)N1CCN(c2ccc(-n3c(=O)ccc4cnc5ccc(-c6cnc7ccccc7c6)cc5c43)cc2C(F)(F)F)CC1 | – | – | – | – | – | – | – | – | – | – | 24.3% | 6.36% | 15.3% | -7.57% | 59% | -7.39% | 10.6% | 3.95% | -7.49% |
| C[C@]1(O)C[C@@H](c2nc(-c3ccc4ccc(-c5ccccc5)nc4c3)c3c(N)nccn32)C1 | 18.4% | 10.6% | 25.7% | 12.6% | 57.9% | 4.89% | -7.95% | 7.32% | 2.7% | – | – | – | – | – | – | – | – | – | – |
| CC1(C)CCC(C)(C)c2cc(NC(=O)c3ccc(C(=O)O)cc3)ccc21 | 7.75% | 1.34% | 0.879% | 4.36% | 47.2% | -4.53% | 31.6% | 0.0471% | 58.9% | – | – | – | – | – | – | – | – | – | – |
| Nc1ncnc2c1ncn2[C@@H]1O[C@H](CO)[C@@H](O)[C@H]1O | -2.21% | 2.66% | 17.8% | 2.76% | 6.82% | 8.25% | -6.13% | -7.49% | -3.22% | – | – | – | – | – | – | – | – | – | – |

Now from value to compound:

| inhibition ([1]; Compound Concentration 10.0 uM) | inhibition ([2]; Compound Concentration 10.0 uM) | inhibition ([3]; Compound Concentration 10.0 uM) | inhibition ([4]; Compound Concentration 10.0 uM) | inhibition ([5]; Compound Concentration 10.0 uM) | inhibition ([6]; Compound Concentration 10.0 uM) | inhibition [7, 10] | inhibition ([8]; Compound Concentration 10.0 uM) | inhibition ([9]; Compound Concentration 10.0 uM) | inhibition ([7]; Compound Concentration 10.0 uM, Hit Yes) | inhibition ([1]; Compound Concentration 1.0 uM) | inhibition ([2]; Compound Concentration 1.0 uM) | inhibition ([3]; Compound Concentration 1.0 uM) | inhibition ([4]; Compound Concentration 1.0 uM) | inhibition ([5]; Compound Concentration 1.0 uM) | inhibition ([6]; Compound Concentration 1.0 uM) | inhibition [7, 11] | inhibition ([8]; Compound Concentration 1.0 uM) | inhibition ([9]; Compound Concentration 1.0 uM) | SMILES |
| --- | --- | --- | --- | --- | --- | --- | --- | --- | --- | --- | --- | --- | --- | --- | --- | --- | --- | --- | --- |
| 5.69% | -5.21% | 5.24% | 3.98% | 3.38% | 3.27% | -8.02% | 3.51% | -1.37% | – | – | – | – | – | – | – | – | – | – | CCNC(=O)N1CCCN(c2ccc(C(=O)NCCc3ccc(Cl)cc3Cl)cc2NC(=O)c2cccc(Cl)c2)CC1 |
| – | – | – | – | – | – | – | – | – | – | 17.8% | 4.63% | -4.69% | 7.16% | 45.5% | -3.77% | 5.54% | 3.9% | 63.1% | COc1cccc(-c2nccc3c2CN(c2ccccc2)C3=O)c1 |
| 12.7% | 5.29% | 6.45% | -0.489% | 69.8% | 2.28% | 12.6% | 5.95% | 61.8% | – | – | – | – | – | – | – | – | – | – | CC(=O)Nc1c(F)cc(C(=O)N[C@H]2CC[C@H](O)CC2)cc1O[C@@H](C)c1ccccc1 |
| – | – | – | – | – | – | – | – | – | – | 16.9% | 1.48% | -3.03% | -7.84% | 25.9% | 0.138% | 1.67% | 2.27% | 48.6% | OCCn1cc(-c2ccc3c(c2)CCC3=NO)c(-c2ccncc2)n1 |
| – | – | – | – | – | – | – | – | – | – | 34.2% | -0.61% | 2.62% | -5.15% | 53.2% | -5.15% | 7.47% | 6.29% | 13.8% | N#Cc1cnc(Nc2cc(NC[C@H]3CNCCO3)c(C(F)(F)F)cn2)cn1 |
| – | – | – | – | – | – | – | – | – | – | 4.46% | -3.26% | -1.09% | -1.25% | 35.8% | -9.83% | 5% | 0.688% | 55.1% | CC(C)CC(=O)N1CCc2nc(-c3ccc(Br)cc3)nc(N(C)Cc3ccccc3)c2C1 |
| 26.7% | -1.31% | 17.4% | -1.65% | 40.3% | 2.25% | 2.29% | 4.92% | 0.277% | – | – | – | – | – | – | – | – | – | – | C[C@@H]1CCc2ncc(F)cc2[C@H]2CCCN2c2ccn3ncc(c3n2)C(=O)N1 |
| 8.49% | -3.21% | -7.02% | 2.51% | 14.3% | 5.28% | -1.24% | -2.45% | 4.39% | – | – | – | – | – | – | – | – | – | – | CCCCN1CCC(COC(=O)c2cc(Cl)c(N)c3c2OCCO3)CC1 |
| – | – | – | – | – | – | – | – | – | – | 13.6% | -4.56% | 3.53% | -5.61% | 40.8% | -7.58% | 9.85% | 2.21% | 25.6% | Cc1cc(Nc2nccc(C)n2)cc(-c2cnc([C@@]3(O)CC[C@H](C(=O)O)C(C)(C)C3)s2)c1 |
| 23% | -2.6% | 15.4% | -2.53% | 55.2% | -3.17% | 16.2% | 7.59% | 75% | – | – | – | – | – | – | – | – | – | – | c1ccc(C2CCN(c3cnc4c(N5CCOCC5)nccn34)CC2)cc1 |
| – | – | – | – | – | – | – | – | – | – | 19.5% | 2.18% | -1.15% | 0.505% | 29.2% | 2.52% | 3.08% | 3.77% | 4.16% | Nc1ncc2c(n1)-c1c([nH]c3ccc(C4CC4)cc13)CCCC2 |
| 15.1% | -4.1% | 8.44% | 8.58% | 48.3% | 5.29% | 2.35% | 4.06% | -6.01% | – | – | – | – | – | – | – | – | – | – | O=C(NCCCN1CCOC1=O)c1cnc(NCc2cc(Br)ccc2Br)nc1NC1CCCC1 |
| 6.53% | 7.92% | -6.77% | 5.89% | 40.4% | 3.04% | -6.61% | 1.18% | 53.6% | – | – | – | – | – | – | – | – | – | – | N#CN1CC[C@H](C(=O)Nc2nc3c(s2)CN(C(=O)CN=[N+]=[N-])CC3)C1 |
